Data: US20230174562A1, “RADIO-AND CHEMO-PROTECTIVE COMPOUNDS” (TONIX PHARMACEUTICALS, INC., priority 2020, published 2023)

What was measured:
[1] = cited from earlier work
mice = assay: Phase 1 maximum tolerated dose (MTD) determination in mice; assay type: in vivo; details: male mice; oral gavage; 1,000 mg/kg
Description: (§1) Male mice were randomized and assessed in two phases: 1) for maximum tolerated doses (MTDs) of PrC-210, DzCH2SH, and 2Pip-2PrSH to determine dose levels for the efficacy study and 2) to evaluate the efficacy of the compounds when administered 60±5 minutes prior to exposure to total body irradiation (TBI) at an LD100/30 dose (990 cGy) (Tables 1 and 2).
(§2) For Phase 1 or 2, sterile water (vehicle), PrC-210, DzCH2SH, and 2Pip2PrSH were administered at 10 mL/kg calculated based on the most recent body weight via oral gavage. Animals were not fasted prior to administration of the compounds or vehicle. Mice in Phase 1 were administered the dose on Day 1 and mice in Phase 2 were administered the dose 60±5 minutes prior to TBI on Day 0.
(§3) All surviving animals were observed once daily for clinical signs (e.g., unusually low or high activity, lethargy, shivering, appearance of fur, bloody and water stool, and other symptoms of moribundity) at 1-2 hours post-irradiation and/or post-dose and once daily on non-dosing days until Day 4 (Phase 1) or Day 30 (Phase 2).
In Phase 1 (Table 1), all animals were normal when observed and all body weights were within normal range. The dose level of 1000 mg/kg was selected for Phase 2.

[2] = system: mice exposed to total body irradiation (TBI); assay: Phase 2 efficacy: survival of mice dosed before total body irradiation (TBI) at LD100/30; assay type: in vivo; details: for survival compared to vehicle (Group 13) by Chi-square test / survival compared to vehicle (Group 13) by Log-rank (Mantel-Cox) test / number of animals survived until scheduled sacrifice (Day 30) / number of mice found dead / number of mice moribund sacrificed: 1000 mg/kg oral gavage before TBI 9.9 Gy; for Survival: Day 30, 11 animals; for Survival / median survival time: male mice, 1000 mg/kg oral gavage 60±5 min before TBI 9.9 Gy (LD100/30); for body weight gain on Days 5 to 9: compared to the vehicle group (Group 13); for number of animals survived until scheduled sacrifice (Day 30) / number of mice found dead / number of mice moribund sacrificed: of 11 mice; for survival of animals through 30 days post exposure: treated prior to total body irradiation (LD100/30)
Description: as §1, §2
Irradiation was administered once to the whole body. TBI of mice were performed using a 6 MV LINAC photon source (TrueBeam STx source). Animals were irradiated at a dose rate of up to 80 cGy/min to the midline of the animals. The source irradiated animals to 50% of the dose from anterior-posterior direction and […] from the posterior-anterior direction. Dose measurements were performed with a PTW 31010 0.1 cc Semiflex Ion chamber.
as §3
In Phase 2 (Table 2), survival curves of mice treated with vehicle, PrC-210, DzCH2SH or 2Pip-PrSH prior to TBI with 9.9 Gy were measured (FIG. 1). […] Five mice were moribund sacrificed, and 6 mice were found dead. Survival in the Group 13 animals was 0% and median survival time was 8 days. In mice administered with PrC-210 before TBI (Group 14), 4 animals survived until scheduled sacrifice (Day 30) while 7 mice were moribund sacrificed. […] In mice administered with DzCH2SH before TBI (Group 15), 3 animals survived until scheduled sacrifice (Day 30) while 7 mice were moribund sacrificed, and one mouse was found dead. […] Five mice were moribund sacrificed and six mice were found dead. Survival in the Group 16 mice was 0% and median survival time was 10 days.

[3] = Hygroscopicity on 10 minute exposure to the atmosphere; assay type: physicochemical; details: 10 minute exposure of a small amount to the atmosphere; diHCl salt
Description: In Reaction E: 48 ml of HCl in methanol, 6 eq. (1.25 M solution, Aldrich #17935) was added to a solution of compound V, 3.5 g, 0.010 moles dissolved in 10 ml dry methanol in a flask under argon and equipped for magnetic stirring and the reaction was stirred at room temperature for 24 hours. […] The solution was degassed by gently bubbling argon into the solution for 30 minutes. Concentration (rotary evaporator at ambient temperature) provided a crude oily residue which was triturated with hexane producing a white solid. The hexane was removed (via pipette suction) and replaced with dry THF (25 ml). After an additional 10 minutes of trituration, the THF was removed and replaced with dry hexane (25 ml). After an additional 10 minutes of trituration, the hexane was removed and the resulting white solid was dried in vacuo over P2O5 providing 1.95 grams of diHCl salt of PrC-210 (88%). […]
In Reaction P: Compound XVI, 2.2 grams, 0.0058 moles was placed in a round-bottom flask equipped for magnetic stirring followed by 15 mL anhydrous trifluoroacetic acid (CF3COOH, Aldrich #8.08260). The flask was fitted with a condenser and the solution was refluxed for 5 hours whereupon it was determined that the reaction was complete using TLC by observing the disappearance of starting material and the appearance of a highly polar product, which stained positive with ninhydrin. […]

[4] = system: mice exposed to whole body irradiation; assay: Radiation LD50 in mice after whole body irradiation; assay type: in vivo; details: oral gavage 60 minutes prior to whole body irradiation 2-12 Gy, 30 days
Description: The affect of the compounds according to the disclosure on the dose of radiation required to kill 50% of mice (LD50) is assessed.
Mice are assigned to three groups (Groups 1, 2 and 3). A control group, Group 1, is treated via oral gavage with vehicle (Lactated Ringer's and 5% dextrose, adjusted to pH 7.3 with sodium bicarbonate) 60 minutes prior to whole body irradiation (2 Gy). Group 2 is treated via oral gavage with PrC-210, as a positive control, dissolved in Lactated Ringer's at a dose of 200 mg/kg 60 minutes prior to whole body irradiaton (2 Gy). Group 3 is treated via oral gavage with compound 1 (PrC-210-PT) dissolved in Lactated Ringer's at a dose of 308 mg/kg 60 minutes prior to whole body irradiation (2 Gy). The mortality of the three groups is assessed for 30 days post irradiation.
The experiment is repeated using varying radiation doses of 4, 6, 8, 10 and 12 Gy. The LD50 for each group was determined.
The experiment is repeated to assess compounds 2-23 as radioprotectors.

[5] = system: mice exposed to radiation; assay: Protection of mice from lethal radiation (8 Gy, LD100); assay type: in vivo; details: oral gavage 15-90 minutes prior to 8 Gy (LD100), 60 days post irradiation
Description: The radioprotective efficacy of the thiols, prodrugs and double prodrugs according to this disclosure is assessed in mice. The compounds of the disclosure are administered via oral gavage to mice, and are compared to mice that have been administered 3-(methylamino)-2-(methylaminomethyl)propane-1-thiol (PrC-210), as well as to a control group or mice that are administered vehicle (i.e., containing no radioprotective additive).
More specifically, mice are assigned to three groups (Groups 1, 2 and 3). A control group, Group 1, is treated via oral gavage with vehicle (Lactated Ringer's and 5% dextrose, adjusted to pH 7.3 with sodium bicarbonate) 15-90 minutes prior to a dose of 8 Gy (LD100) radiation. Group 2 is treated via oral gavage with PrC-210, as a positive control, dissolved in Lactated Ringer's at a dose of 200 mg/kg 15-90 minutes prior to irradiation with 8 Gy (LD100). Group 3 is treated via oral gavage with compound 1 (PrC-210-PT) dissolved in Lactated Ringer's at a dose of 308 mg/kg 15-90 minutes prior to irradiation with 8 Gy (LD100). The mortality of the three groups is assessed for 60 days post irradiation. The experiment is repeated with doses of PrC-210 ranging from 200 mg/kg to 450 mg/kg. Molar equivalent dosages of the test compound (compound 1, Prc-210-PT) to PrC-210 are also assessed.
The experiment is repeated to assess the efficacy of compounds 2-23 as radioprotectors.

[6] = after 1000 mg/kg oral gavage and TBI 9.9 Gy, 11 per group
[7] = after 1000 mg/kg oral gavage and TBI 9.9 Gy

| Structure (SMILES) | toxicity at the highest tested dose (mice) | survival compared to vehicle (Group 13) by Chi-square test [2] | survival compared to vehicle (Group 13) by Log-rank (Mantel-Cox) test [2] | Survival [2] [%] | number of animals with cold to touch skin [2, 6] | number of animals with eye discharge [2, 6] | number of animals with hypoactivity [2, 6] | number of animals with swollen eye [2, 6] | number of mice with lethargy [2, 6] | number of mice with swollen head [2, 6] | body weight gain on Days 5 to 9 [2, 7] | median survival time [2] [days] | number of animals survived until scheduled sacrifice (Day 30) [2] | number of mice found dead [2] | number of mice moribund sacrificed [2] | hygroscopicity [3] | survival of animals through 30 days post exposure [2] | also measured |
| --- | --- | --- | --- | --- | --- | --- | --- | --- | --- | --- | --- | --- | --- | --- | --- | --- | --- | --- |
| NCCCNCCSP(=O)(O)O [Amifostine, amifostine] |  |  |  |  |  |  |  |  |  |  |  |  |  |  |  |  |  | efficacy as a radioprotector ([1]; administered orally): lacks efficacy |
| CC(C)(S)C1CNCCN1 (centres unmarked) [Compound 2Pip-2PrSH, 2-(piperazin-2-yl)propane-2-thiol] | did not produce any toxicity | not statistically significantly different | statistically significantly higher | 0 | 4 | one | 5 | one | one | one | did not gain body weights | 10 | no animals survived | six | Five |  |  |  |
| SCC1CNCCNC1 [Compound 22, (1,4-diazepan-6-yl)methanethiol] | did not produce any toxicity |  | statistically significantly higher | 27.3 | one | 2 | 5 | 2 | one | one | did not gain body weights | 11 | 3 | one | 7 | did not show any signs of hygroscopicity | increased survival | mortality rate at 8-days post-irradiation ([2]; 1000 mg/kg oral gavage before TBI): efficacious effects; number of animals with eye cloudy [2, 6]: 2; number of animals with sunken eye [2, 6]: 1; number of mice with eye opacity [2, 6]: one; number of mice with labored breathing [2, 6]: one |
| CNCC(CS)CNC [PrC-210, 3-(methylamino)-2-((methylamino)methyl)propane-1-thiol, reference compound] | did not produce any toxicity | statistically significantly higher | statistically significantly higher | 36.4 |  | one | 5 | one |  |  | significantly higher | 11 | 4 |  | 7 | did not show any signs of hygroscopicity | increased survival | radiation LD50 versus control group [4]: control group demonstrates a lower LD50 compared to the mice treated with; mean body weight on Day 9 versus Groups 13, 15 and 16 [2, 7]: higher; number of mice with tremor [2, 6]: 4; rate of survival versus control group [5]: control group demonstrates a reduced rate of survival compared to the mice treated with; radioprotective properties ([1]; administered topically and orally in preclinical studies): demonstrated radioprotective properties; side effects ([1]; compared with Amifostine): less side effects than Amifostine |
